Measured values: patent publication US10106853B2, “CUL4B as predictive biomarker for cancer treatment” (CORNELL UNIVERSITY, priority 2012, dated 2018)

Tests used:
CUL4B-Top1 interaction = molecular target: T1, CUL4B-Top1 interaction (Homo sapiens, UniProt P11387); assay: Co-immunoprecipitation of CUL4B and Top1 in BT474 cells; type: cell-based; details: BT474 cells in the presence of CPT, crosslinked
T1 construct: Top1 was co-immunoprecipitated with CUL4B in the presence of CPT; host or cells: BT474 human breast cancer cells
Description: BT474 cells were infected with lentiviral shCUL4B, shCUL4A or control non-targeting shRNA, and selected for stable CUL4B^k/d or CUL4A^k/d cells upon treatment with puromycin. Following treatment with CPT (50 μM) for 1 hour, cells were replenished with CPT-free fresh medium and incubated at 37° C. for 30 minutes. Top1 degradation was assessed by immunoblotting with an anti-Top1 antibody. Levels of α-tubulin were measured as a loading control. B) Association of CUL4B with Top1 following CPT treatment. BT474 cells were treated with proteosome inhibitor MG132 (15 μM) for 3 hours, and were subjected to crosslinking with 0.2 mM Dithiobis[succinimidyl propionate](DSP) for the last 30 min at room temperature. Cell lysates were prepared, and immunoprecipitated with the anti-Top1 or anti-CUL4B antibodies, and then immunoblotted using antibodies against CUL4B or Top1, respectively. […] Top1 degradation was assessed by immunoblotting with the anti-Top1 antibody. Levels of α-tubulin were measured as a loading control. […] Statistical significance in cellular response to CPT between control BT474 cells and CUL4A^k/d or CUL4B^k/d cells were assessed by a two-tailed unpaired student t-test (***: p<0.001). […] Statistical significance in cellular response to camptothecin between control cells and CUL4A^k/d or CUL4B^k/d BT474 cells are assessed by student's t-test. […]

[1] = test system: γH2AX foci in BT474 cells; assay: Immunofluorescent detection of γH2AX foci; type: cell-based, Human; details: 2 μM CPT 2 hours, 1 hour repair
Description: (§1) FIG. 3. CUL4B^k/d BT474 cells are susceptible to CPT-induced DNA damage. A) Persistent DNA damage in CPT-treated BT474-CUL4B^k/d cells. Control or CUL4B^k/d BT474 cells were treated with 2 μM of CPT for the indicated time periods, replenished with CPT-free fresh medium, incubated at 37° C. for 1 hour to repair DNA damage, and subjected to immunoblotting with the anti-γH2AX antibody to determine the extent of DNA damage. B) Immunofluorescent detection of γH2AX foci in control or CUL4B^k/d BT474 cells following CPT treatment. BT474 cells were infected with lentiviral control shRNA (shCtrl) or shCUL4B, treated with 2 μM CPT for 2 hours and replenished with CPT-free fresh medium, incubated at 37° C. for 1 hour to repair DNA damage. γH2AX foci were detected by immunofluorescent assay with the rabbit anti-γH2AX antibody and goat anti-rabbit secondary antibody conjugated with cy3 (red). Nuclei were stained with DAPI (blue). C, D) Percentage of γH2AX-positive cells and number of persistent γH2AX foci in a total of 300 γH2AX-positive cells. All values were presented as mean±S.E. Statistical significance was assessed by a two-tailed unpaired Student t-test (***: p<0.001).
Cells were initially grown on chamber slides. […] After PBS washes, cells were mounted with FluroSave™ Reagent (Calbiochem), and visualized under the fluorescence microscope, and images were captured via camera.

γH2AX in BT474 cells = assay: Western blot analysis for γH2AX; type: cell-based, Human; details: CPT-treated BT474 cells with CUL4B silencing via shRNA vs control; 2 μM CPT
Description: as §1, with “p<0.001). […]” for “p<0.001).”

BT474 cells = assay: XTT Cell Proliferation Assay, growth rate of BT474 cells in vitro; type: cell-based, Human; details: knockdown cells vs control, no drug
Description: FIG. 5. CUL4B inactivation sensitized BT474 xenograft tumors to topotecan. Stable TGL-BT474 cells (BT474 cells stably expressing GFP-luciferase reporter) were established by retroviral transduction and FACS sorting. The resulting TGL-BT474 cells were infected with recombinant lentiviruses expressing non-targeting shCtrl, shCUL4A or shCUL4B, followed by selection of infected cells with 4 μg/ml puromycine for one week. A) Knockdown of endogenous CUL4A and 4B were verified by immunoblotting. […] Statistical significance in tumor burden between control and CUL4A^k/d or CUL4B^k/d xenograph are assessed by a two-tailed unpaired student t-test (***: p<0.001). […] The same number of control, CUL4A^k/d and CUL4B^k/d BT474 cells were seeded to 96-well plates and cell proliferation was measured using the XTT Cell Proliferation Assay Kit. […] Statistical significance in cellular rate between control cells and CUL4A^k/d or CUL4B^k/d cells are assessed by student's t-test. […] 1×10^7 of control, CUL4A^k/d or CUL4B^k/d TGL-BT474 cells were injected subcutaneously in the right flank of each mouse of athymic Nu/J nude mice, and tumor burden was measured by bioluminescent imaging (E). On the 22nd day, tumors were collected, and the weight of exercised tumors was measured after mice were sacrificed (F).

T1 sequence (P11387 2-765 limits assumed): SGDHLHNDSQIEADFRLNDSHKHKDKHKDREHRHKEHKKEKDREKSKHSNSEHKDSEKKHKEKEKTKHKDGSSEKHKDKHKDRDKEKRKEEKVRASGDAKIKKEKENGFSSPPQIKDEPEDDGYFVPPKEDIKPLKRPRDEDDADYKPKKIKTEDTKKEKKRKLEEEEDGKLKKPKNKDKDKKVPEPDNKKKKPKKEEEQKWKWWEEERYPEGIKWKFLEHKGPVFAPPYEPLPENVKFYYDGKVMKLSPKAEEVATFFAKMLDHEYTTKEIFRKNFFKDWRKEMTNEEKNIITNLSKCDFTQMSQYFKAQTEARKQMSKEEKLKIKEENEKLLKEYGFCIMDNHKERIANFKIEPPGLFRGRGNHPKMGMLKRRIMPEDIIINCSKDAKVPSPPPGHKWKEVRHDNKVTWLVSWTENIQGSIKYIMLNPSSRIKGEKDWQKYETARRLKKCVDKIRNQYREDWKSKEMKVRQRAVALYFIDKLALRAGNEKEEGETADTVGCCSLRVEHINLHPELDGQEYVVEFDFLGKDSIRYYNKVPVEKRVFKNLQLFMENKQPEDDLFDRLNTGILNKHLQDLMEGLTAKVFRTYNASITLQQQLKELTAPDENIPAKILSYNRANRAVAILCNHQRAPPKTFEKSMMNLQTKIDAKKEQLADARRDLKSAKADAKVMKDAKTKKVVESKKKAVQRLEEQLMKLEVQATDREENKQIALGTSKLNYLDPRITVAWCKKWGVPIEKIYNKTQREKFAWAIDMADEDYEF
T1 sequence (Q13620 whole entry partner): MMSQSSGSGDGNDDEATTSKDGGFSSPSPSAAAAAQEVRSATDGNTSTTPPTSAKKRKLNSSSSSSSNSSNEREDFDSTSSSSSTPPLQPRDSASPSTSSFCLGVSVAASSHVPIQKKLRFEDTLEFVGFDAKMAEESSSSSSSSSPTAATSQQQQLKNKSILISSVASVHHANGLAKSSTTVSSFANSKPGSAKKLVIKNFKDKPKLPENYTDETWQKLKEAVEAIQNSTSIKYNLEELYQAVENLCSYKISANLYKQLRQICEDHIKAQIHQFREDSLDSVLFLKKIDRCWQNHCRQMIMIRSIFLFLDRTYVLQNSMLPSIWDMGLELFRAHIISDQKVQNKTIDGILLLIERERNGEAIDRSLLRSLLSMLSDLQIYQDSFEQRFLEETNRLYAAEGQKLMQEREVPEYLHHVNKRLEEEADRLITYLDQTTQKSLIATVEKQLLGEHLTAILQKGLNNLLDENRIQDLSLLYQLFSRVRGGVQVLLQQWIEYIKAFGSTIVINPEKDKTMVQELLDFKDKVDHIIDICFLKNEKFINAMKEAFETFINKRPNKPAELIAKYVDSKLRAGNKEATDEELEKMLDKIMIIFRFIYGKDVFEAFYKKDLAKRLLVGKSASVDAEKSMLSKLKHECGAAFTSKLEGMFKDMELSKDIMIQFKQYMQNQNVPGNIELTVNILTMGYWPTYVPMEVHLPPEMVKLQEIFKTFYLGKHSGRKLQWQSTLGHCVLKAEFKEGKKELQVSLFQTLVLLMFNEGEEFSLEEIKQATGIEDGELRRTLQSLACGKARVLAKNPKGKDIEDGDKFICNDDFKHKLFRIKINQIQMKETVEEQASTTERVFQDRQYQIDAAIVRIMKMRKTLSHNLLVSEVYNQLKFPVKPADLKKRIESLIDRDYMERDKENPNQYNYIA

Question: For CC[C@@]1(O)C(=O)OCc2c1cc1n(c2=O)Cc2cc3ccccc3nc2-1 [CPT, (S)-4-ethyl-4-hydroxy-1H-pyrano[3′,4′:6,7]indolizino[1,2-b]quinoline-3,14-(4H, 12H)-dione], which “Association of Top1 with CUL4B” value (CUL4B-Top1 interaction) is on record?
Answer: The value was “co-immunoprecipitated”.

Question: And the “Cells with accumulation of γH2AX foci” value ([1]; CPT-treated CUL4B k/d BT474 cells)?
Answer: The value was 50%.

Question: What about the “Cells with accumulation of γH2AX foci” value ([1]; CPT-treated control BT474 cells) of the same molecule?
Answer: Its value is 20%.

Question: And the “Levels of γH2AX (Western blotting)” value (γH2AX in BT474 cells)?
Answer: The value was “elevated”.

Question: With “shCUL4B: lentiviral shRNA CUL4B sequence purchased from Sigma Aldrich, reduces CUL4B expression (CCGGGCAGAATTTAAAGAGGGTAAACTCGAGTTTACCCTCTTTAAATTCTGCTTTTT)” as the molecule, how does the “Growth rate of cultured BT474 cells in vitro” value (BT474 cells) read?
Answer: The value was “no effect”.
